Test results published in ChEMBL document CHEMBL4507278 (2021).

Columns and labels:
[1] = molecular target: Alpha-2C adrenergic receptor (Homo sapiens) (UniProt P18825); settings: Compound concentration 10.0 uM
[2] = molecular target: Serine/threonine-protein kinase Nek7 (Homo sapiens) (UniProt Q8TDX7); settings: Compound concentration 1000.0 nM
[3] = molecular target: Serine/threonine-protein kinase SBK1 (Homo sapiens) (UniProt Q52WX2); settings: Compound concentration 1000.0 nM
[4] = molecular target: Fibroblast growth factor receptor 1 (Homo sapiens) (UniProt P11362); settings: Compound concentration 1000.0 nM
[5] = molecular target: Tyrosine-protein kinase receptor UFO (Homo sapiens) (UniProt P30530); settings: Compound concentration 1000.0 nM
[6] = molecular target: cAMP-dependent protein kinase catalytic subunit beta (Homo sapiens) (UniProt P22694); settings: Compound concentration 1000.0 nM
[7] = molecular target: Histamine H2 receptor (Homo sapiens) (UniProt P25021); settings: Compound concentration 10.0 uM
[8] = molecular target: Phosphatidylinositol 4,5-bisphosphate 3-kinase catalytic subunit alpha isoform (Homo sapiens) (UniProt P42336); settings: Compound concentration 1000.0 nM
[9] = molecular target: Sigma intracellular receptor 2 (Homo sapiens) (UniProt Q5BJF2); settings: Compound concentration 10.0 uM
[10] = molecular target: Tyrosine-protein kinase Lyn (Homo sapiens) (UniProt P07948); settings: Compound concentration 1000.0 nM
[11] = molecular target: Serine/threonine-protein kinase Sgk2 (Homo sapiens) (UniProt Q9HBY8); settings: Compound concentration 1000.0 nM
[12] = molecular target: Mitotic checkpoint serine/threonine-protein kinase BUB1 (Homo sapiens) (UniProt O43683); settings: Compound concentration 1000.0 nM
[13] = molecular target: Homeodomain-interacting protein kinase 2 (Homo sapiens) (UniProt Q9H2X6); settings: Compound concentration 1000.0 nM
[14] = molecular target: Alpha-2B adrenergic receptor (Homo sapiens) (UniProt P18089); settings: Compound concentration 10.0 uM
[15] = molecular target: Fibroblast growth factor receptor 2 (Homo sapiens) (UniProt P21802); settings: Compound concentration 1000.0 nM
[16] = test system: Proto-oncogene tyrosine-protein kinase receptor Ret (Homo sapiens), P07949 [V804M]; settings: Compound concentration 1000.0 nM
[17] = molecular target: ALK tyrosine kinase receptor (Homo sapiens) (UniProt Q9UM73); settings: Compound concentration 1000.0 nM
[18] = molecular target: Serine/threonine-protein kinase mTOR (Homo sapiens) (UniProt P42345); settings: Compound concentration 1000.0 nM
[19] = molecular target: T1, 5-hydroxytryptamine receptor 1A (Homo sapiens) (UniProt P08908); settings: Compound concentration 10.0 uM
T1 sequence (whole entry): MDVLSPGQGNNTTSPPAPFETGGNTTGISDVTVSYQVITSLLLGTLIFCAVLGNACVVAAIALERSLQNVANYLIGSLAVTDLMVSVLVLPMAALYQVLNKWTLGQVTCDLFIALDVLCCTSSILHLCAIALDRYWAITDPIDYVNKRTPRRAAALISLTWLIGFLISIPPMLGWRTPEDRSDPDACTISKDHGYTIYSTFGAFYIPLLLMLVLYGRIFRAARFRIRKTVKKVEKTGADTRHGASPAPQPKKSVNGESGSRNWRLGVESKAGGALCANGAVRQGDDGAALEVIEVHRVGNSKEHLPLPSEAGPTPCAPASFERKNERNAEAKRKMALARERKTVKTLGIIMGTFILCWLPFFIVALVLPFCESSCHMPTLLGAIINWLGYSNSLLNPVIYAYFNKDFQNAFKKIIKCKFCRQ

[20] = molecular target: Ribosomal protein S6 kinase alpha-6 (Homo sapiens) (UniProt Q9UK32); settings: Compound concentration 1000.0 nM
[21] = test system: Tyrosine-protein kinase ABL1 (Homo sapiens), P00519 [F317L]; settings: Compound concentration 1000.0 nM
[22] = molecular target: Mitogen-activated protein kinase kinase kinase 10 (Homo sapiens) (UniProt Q02779); settings: Compound concentration 1000.0 nM
[23] = molecular target: 5-hydroxytryptamine receptor 2B (Homo sapiens) (UniProt P41595); settings: Compound concentration 10.0 uM
[24] = molecular target: Cyclin-dependent kinase 3 (Homo sapiens) (UniProt Q00526); settings: Compound concentration 1000.0 nM
[25] = molecular target: Casein kinase I isoform gamma-3 (Homo sapiens) (UniProt Q9Y6M4); settings: Compound concentration 1000.0 nM
[26] = molecular target: Serine/threonine-protein kinase Nek3 (Homo sapiens) (UniProt P51956); settings: Compound concentration 1000.0 nM
[27] = molecular target: Phosphatidylinositol 4-kinase beta (Homo sapiens) (UniProt Q9UBF8); settings: Compound concentration 1000.0 nM
[28] = molecular target: Tyrosine-protein kinase receptor Tie-1 (Homo sapiens) (UniProt P35590); settings: Compound concentration 1000.0 nM
[29] = molecular target: Serine/threonine-protein kinase PAK 5 (Homo sapiens) (UniProt Q9P286); settings: Compound concentration 1000.0 nM
[30] = molecular target: Beta-3 adrenergic receptor (Homo sapiens) (UniProt P13945); settings: Compound concentration 10.0 uM
[31] = molecular target: Receptor-type tyrosine-protein kinase FLT3 (Homo sapiens) (UniProt P36888); settings: Compound concentration 1000.0 nM
[32] = molecular target: NUAK family SNF1-like kinase 1 (Homo sapiens) (UniProt O60285); settings: Compound concentration 1000.0 nM
[33] = molecular target: Phosphatidylinositol 5-phosphate 4-kinase type-2 gamma (Homo sapiens) (UniProt Q8TBX8); settings: Compound concentration 1000.0 nM
[34] = molecular target: Dual specificity mitogen-activated protein kinase kinase 5 (Homo sapiens) (UniProt Q13163); settings: Compound concentration 1000.0 nM
[35] = test system: Tyrosine-protein kinase ABL1 (Homo sapiens), P00519 [F317I]; settings: Compound concentration 1000.0 nM

Sequence of Serine/threonine-protein kinase SBK1 (Homo sapiens) (Q52WX2 whole entry): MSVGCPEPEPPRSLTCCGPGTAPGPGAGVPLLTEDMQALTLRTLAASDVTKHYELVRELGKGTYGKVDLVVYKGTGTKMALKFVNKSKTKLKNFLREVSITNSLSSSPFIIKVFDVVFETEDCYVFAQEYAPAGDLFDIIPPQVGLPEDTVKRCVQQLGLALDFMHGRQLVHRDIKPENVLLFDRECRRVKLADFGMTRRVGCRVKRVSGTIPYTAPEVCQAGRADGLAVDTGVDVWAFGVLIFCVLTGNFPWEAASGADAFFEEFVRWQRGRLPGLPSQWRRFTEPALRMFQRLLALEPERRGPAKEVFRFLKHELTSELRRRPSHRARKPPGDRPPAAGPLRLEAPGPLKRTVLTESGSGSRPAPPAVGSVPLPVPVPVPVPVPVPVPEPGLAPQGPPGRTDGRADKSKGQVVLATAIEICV
Sequence of Tyrosine-protein kinase receptor UFO (Homo sapiens) (P30530 whole entry): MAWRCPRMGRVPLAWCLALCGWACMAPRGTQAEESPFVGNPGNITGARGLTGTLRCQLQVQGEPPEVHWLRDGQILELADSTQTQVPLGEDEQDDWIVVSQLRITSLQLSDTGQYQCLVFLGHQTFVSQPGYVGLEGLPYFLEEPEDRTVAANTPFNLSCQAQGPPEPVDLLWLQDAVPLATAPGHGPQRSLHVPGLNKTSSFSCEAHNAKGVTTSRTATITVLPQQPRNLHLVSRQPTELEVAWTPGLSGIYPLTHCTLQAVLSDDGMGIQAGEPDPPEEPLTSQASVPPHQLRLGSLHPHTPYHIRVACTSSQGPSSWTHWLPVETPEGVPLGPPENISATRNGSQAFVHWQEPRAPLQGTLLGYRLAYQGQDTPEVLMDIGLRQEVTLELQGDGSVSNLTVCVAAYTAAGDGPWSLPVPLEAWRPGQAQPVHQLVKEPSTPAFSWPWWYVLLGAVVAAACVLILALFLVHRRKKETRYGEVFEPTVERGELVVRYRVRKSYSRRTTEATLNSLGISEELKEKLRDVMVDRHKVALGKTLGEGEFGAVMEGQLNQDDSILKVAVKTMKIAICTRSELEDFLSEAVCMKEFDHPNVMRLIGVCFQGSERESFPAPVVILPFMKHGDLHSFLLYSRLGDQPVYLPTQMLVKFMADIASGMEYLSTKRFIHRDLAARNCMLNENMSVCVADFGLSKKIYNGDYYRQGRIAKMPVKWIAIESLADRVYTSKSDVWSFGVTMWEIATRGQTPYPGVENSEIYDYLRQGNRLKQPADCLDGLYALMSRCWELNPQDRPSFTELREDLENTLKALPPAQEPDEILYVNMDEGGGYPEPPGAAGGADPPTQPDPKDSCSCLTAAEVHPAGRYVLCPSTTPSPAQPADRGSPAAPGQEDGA
Sequence of Phosphatidylinositol 4,5-bisphosphate 3-kinase catalytic subunit alpha isoform (Homo sapiens) (P42336 whole entry, canonical isoform): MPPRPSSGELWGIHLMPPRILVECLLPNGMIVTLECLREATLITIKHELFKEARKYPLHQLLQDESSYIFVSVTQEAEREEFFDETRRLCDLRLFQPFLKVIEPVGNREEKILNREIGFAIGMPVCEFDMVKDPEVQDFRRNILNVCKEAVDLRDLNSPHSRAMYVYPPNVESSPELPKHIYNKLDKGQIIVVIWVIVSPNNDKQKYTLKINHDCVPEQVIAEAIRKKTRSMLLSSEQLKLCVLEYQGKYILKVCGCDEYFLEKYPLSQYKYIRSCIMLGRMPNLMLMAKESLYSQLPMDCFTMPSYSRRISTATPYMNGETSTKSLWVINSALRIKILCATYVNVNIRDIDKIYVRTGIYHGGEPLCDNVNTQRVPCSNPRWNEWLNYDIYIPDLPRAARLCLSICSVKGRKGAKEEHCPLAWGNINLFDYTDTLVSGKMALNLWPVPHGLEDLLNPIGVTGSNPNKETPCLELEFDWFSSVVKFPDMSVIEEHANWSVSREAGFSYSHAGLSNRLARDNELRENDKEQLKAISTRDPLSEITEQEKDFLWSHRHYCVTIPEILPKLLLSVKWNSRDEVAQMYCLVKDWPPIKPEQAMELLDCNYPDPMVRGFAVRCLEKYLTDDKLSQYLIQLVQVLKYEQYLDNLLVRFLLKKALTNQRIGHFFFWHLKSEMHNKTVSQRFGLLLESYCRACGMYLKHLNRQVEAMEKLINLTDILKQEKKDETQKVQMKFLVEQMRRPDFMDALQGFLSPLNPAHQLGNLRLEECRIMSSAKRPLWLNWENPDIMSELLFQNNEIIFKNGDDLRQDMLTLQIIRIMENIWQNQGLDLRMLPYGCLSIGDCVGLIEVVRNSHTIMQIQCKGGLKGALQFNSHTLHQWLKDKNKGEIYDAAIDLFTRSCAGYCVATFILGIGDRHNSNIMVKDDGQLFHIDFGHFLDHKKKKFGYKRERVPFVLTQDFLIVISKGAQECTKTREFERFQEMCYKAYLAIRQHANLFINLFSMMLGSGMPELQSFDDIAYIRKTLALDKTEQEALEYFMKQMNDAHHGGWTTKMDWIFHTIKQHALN
Sequence of Serine/threonine-protein kinase Nek3 (Homo sapiens) (P51956 whole entry): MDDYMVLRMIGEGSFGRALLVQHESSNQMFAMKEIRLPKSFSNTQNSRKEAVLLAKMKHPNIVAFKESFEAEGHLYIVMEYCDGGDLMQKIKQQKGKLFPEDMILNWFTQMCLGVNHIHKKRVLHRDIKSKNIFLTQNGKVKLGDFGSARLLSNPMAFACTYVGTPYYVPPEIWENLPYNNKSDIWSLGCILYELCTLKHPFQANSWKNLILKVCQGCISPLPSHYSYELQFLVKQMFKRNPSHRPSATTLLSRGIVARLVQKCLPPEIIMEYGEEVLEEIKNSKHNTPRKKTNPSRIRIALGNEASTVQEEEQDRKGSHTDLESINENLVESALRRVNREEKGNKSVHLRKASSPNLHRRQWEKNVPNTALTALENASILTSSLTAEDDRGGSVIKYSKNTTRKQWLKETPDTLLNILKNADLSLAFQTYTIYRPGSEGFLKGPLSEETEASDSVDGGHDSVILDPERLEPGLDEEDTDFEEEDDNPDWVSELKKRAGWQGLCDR
Sequence of Mitotic checkpoint serine/threonine-protein kinase BUB1 (Homo sapiens) (O43683 whole entry, looked up): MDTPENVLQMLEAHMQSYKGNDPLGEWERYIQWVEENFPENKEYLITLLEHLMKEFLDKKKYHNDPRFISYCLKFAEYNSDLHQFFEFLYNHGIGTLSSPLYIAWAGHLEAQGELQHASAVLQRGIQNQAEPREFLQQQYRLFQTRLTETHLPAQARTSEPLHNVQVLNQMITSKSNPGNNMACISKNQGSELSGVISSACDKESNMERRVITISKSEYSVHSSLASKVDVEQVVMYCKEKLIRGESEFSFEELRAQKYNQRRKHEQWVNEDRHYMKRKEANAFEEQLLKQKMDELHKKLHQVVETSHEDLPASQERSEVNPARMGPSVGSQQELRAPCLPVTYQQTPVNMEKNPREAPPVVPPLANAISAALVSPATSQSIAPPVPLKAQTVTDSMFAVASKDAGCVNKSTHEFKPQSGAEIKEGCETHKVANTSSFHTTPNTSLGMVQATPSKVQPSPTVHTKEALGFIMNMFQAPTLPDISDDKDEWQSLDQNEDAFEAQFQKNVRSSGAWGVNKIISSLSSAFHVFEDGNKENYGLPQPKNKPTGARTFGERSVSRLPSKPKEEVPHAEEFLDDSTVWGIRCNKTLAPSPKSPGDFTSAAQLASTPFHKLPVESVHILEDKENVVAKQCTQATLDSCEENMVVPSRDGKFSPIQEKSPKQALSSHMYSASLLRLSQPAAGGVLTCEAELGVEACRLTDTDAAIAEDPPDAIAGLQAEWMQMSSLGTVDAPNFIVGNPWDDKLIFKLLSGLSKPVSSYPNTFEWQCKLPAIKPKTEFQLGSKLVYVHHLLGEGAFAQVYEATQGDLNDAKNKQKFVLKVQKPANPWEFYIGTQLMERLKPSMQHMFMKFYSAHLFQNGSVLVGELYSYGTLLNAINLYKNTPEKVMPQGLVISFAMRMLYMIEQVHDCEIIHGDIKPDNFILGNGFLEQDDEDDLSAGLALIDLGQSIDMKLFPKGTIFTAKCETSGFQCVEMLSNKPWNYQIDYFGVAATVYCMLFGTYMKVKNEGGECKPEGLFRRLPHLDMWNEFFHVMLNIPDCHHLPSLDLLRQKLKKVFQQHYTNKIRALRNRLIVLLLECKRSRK
Sequence of Phosphatidylinositol 4-kinase beta (Homo sapiens) (Q9UBF8 2-816 limits assumed): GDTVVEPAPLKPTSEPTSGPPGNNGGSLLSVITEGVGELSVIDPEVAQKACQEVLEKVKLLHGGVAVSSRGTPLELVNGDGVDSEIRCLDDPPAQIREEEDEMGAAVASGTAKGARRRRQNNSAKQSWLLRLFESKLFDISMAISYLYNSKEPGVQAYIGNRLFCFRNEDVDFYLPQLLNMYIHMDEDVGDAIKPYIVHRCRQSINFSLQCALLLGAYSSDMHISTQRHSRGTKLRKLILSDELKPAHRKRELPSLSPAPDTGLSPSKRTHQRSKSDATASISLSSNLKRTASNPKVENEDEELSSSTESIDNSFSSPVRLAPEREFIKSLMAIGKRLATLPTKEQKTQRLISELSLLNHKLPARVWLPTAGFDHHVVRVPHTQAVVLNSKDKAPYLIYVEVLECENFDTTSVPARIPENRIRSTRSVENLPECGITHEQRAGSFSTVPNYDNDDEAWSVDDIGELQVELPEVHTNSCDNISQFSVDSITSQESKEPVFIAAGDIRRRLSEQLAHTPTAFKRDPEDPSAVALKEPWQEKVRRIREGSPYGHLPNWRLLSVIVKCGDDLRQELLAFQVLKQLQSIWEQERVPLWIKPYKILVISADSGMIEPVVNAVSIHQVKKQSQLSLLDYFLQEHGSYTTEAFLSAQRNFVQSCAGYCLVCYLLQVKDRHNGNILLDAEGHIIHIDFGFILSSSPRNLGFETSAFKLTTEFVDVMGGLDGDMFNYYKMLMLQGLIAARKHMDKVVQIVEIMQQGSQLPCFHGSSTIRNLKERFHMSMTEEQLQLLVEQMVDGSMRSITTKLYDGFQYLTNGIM
Sequence of Sigma intracellular receptor 2 (Homo sapiens) (Q5BJF2 whole entry): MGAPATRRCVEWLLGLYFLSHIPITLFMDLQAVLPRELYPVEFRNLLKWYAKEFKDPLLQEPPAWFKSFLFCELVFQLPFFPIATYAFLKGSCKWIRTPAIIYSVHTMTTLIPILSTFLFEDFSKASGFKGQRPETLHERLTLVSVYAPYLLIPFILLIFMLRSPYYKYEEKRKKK

| SMILES | inhibition [1] [%] | residual activity [2] [%] | residual activity [3] [%] | residual activity [4] [%] | residual activity [5] [%] | residual activity [6] [%] | inhibition [7] [%] | residual activity [8] [%] | inhibition [9] [%] | residual activity [10] [%] | residual activity [11] [%] | residual activity [12] [%] | residual activity [13] [%] | inhibition [14] [%] | residual activity [15] [%] | residual activity [16] [%] | residual activity [17] [%] | residual activity [18] [%] | inhibition [19] [%] | residual activity [20] [%] | further results |
| --- | --- | --- | --- | --- | --- | --- | --- | --- | --- | --- | --- | --- | --- | --- | --- | --- | --- | --- | --- | --- | --- |
| CS(=O)(=O)c1cc(C2(NC(=O)c3cncc4c3cnn4-c3ccc(F)cc3)CC2)ccn1 [BI 639667] | -6.8 | 100 | 95 | 95 | 100 | 100 | 3.34 | 100 | 9.02 | 100 | 67 | 85 | 100 | 13.2 | 100 | 97 | 100 | 100 | -9.71 | 64 | residual activity [21]: 100%; residual activity [22]: 99%; inhibition [23]: 22.1%; residual activity [24]: 81%; residual activity [25]: 100%; residual activity [26]: 100%; residual activity [27]: 96%; residual activity [28]: 73%; residual activity [29]: 100%; inhibition [30]: -5.91%; residual activity [31]: 100%; residual activity [32]: 91%; residual activity [33]: 100%; residual activity [34]: 80%; residual activity [35]: 79% |
| CS(=O)(=O)NCC[C@H](NC(=O)c1cncc2c1cnn2-c1ccc(F)cc1)c1ccnc(S(C)(=O)=O)c1 [BI 9307] | -2.08 | 90 | 96 | 87 | 95 | 100 | 2.46 | 83 | -1.85 | 100 | 94 | 100 | 100 | -2.26 | 100 | 96 | 100 | 88 | 13.3 | 100 | residual activity [21]: 100%; residual activity [22]: 75%; inhibition [23]: -5.9%; residual activity [24]: 100%; residual activity [25]: 96%; residual activity [26]: 86%; residual activity [27]: 100%; residual activity [28]: 100%; residual activity [29]: 99%; inhibition [30]: -5.01%; residual activity [31]: 93%; residual activity [32]: 85%; residual activity [33]: 0%; residual activity [34]: 92%; residual activity [35]: 94% |
